Assays:
[1] = biological target: T1, GPR6 (Homo sapiens, UniProt P46095); experiment: GPR6 antagonist functional cAMP assay (LANCE Ultra cAMP TR-FRET, CHO cells stably expressing GPR6); format: cell-based; conditions: CHO cells stably expressing GPR6, cAMP assay (Example 24)
T1 construct: expressed in transfected cells; host or cells: CHO cells
Procedure, shortened: (§1)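 Read-out was TR-FRET cAMP signal at 665 nm after 1 h at room temperature, following 45 min compound exposure at 37 °C. Assay buffer contained 0.1% BSA and 150 μM Ro 20-1724. Antagonist IC50s were fitted with a 4-parameter logistic against DMSO and reference controls.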

[2] = biological target: T2, GPR3 (Homo sapiens, UniProt P46089); experiment: GPR3 antagonist functional cAMP assay (LANCE Ultra cAMP TR-FRET, CHO cells stably expressing GPR3); format: cell-based; conditions: CHO cells stably expressing GPR3, cAMP assay (Example 24)
T2 construct: expressed in transfected cells; host or cells: CHO cells
Procedure, shortened: as §1

T1 sequence (P46095 whole entry): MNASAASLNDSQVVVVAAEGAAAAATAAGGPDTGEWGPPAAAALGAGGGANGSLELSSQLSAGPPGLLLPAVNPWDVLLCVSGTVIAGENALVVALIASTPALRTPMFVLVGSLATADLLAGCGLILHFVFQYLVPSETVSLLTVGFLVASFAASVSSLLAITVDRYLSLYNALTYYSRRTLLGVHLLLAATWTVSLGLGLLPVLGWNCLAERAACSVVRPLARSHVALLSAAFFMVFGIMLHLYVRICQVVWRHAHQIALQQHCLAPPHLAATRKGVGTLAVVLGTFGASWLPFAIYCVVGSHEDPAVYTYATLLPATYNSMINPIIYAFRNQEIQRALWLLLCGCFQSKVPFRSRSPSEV
T2 sequence (P46089 whole entry, species assumed): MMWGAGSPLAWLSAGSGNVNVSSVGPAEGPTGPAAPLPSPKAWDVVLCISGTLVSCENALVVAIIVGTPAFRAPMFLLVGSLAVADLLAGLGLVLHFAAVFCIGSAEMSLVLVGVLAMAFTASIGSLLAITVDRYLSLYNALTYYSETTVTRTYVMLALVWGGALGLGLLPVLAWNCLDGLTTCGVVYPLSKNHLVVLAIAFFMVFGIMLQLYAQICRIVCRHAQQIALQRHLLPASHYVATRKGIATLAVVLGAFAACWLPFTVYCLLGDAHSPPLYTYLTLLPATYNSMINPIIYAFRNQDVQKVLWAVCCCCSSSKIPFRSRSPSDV

**Q.** For `Cn1cc(-c2nc3cncc(C#N)c3nc2N2CCC(Oc3ccc(F)cc3F)CC2)cn1` [Compound 436, 2-[4-(2,4-difluorophenoxy)piperidin-1-yl]-3-(1-methyl-1H-pyrazol-4-yl)pyrido[3,4-b]pyrazine-8-carbonitrile], which IC50 [1] is on record?
**A.** 1 to 30 µM

**Q.** And the IC50 [2]?
**A.** 1 to 30 µM

**Q.** With `COCC(O)c1cc2nc(N3CCC(Oc4ccc(F)cc4F)CC3)c(-c3cnn(C)c3)nc2cn1` (stereo not shown) [Compound 437, 1-(2-(4-(2,4-difluorophenoxy)piperidin-1-yl)-3-(1-methyl-1H-pyrazol-4-yl)pyrido[3,4-b]pyrazin-7-yl)-2-methoxyethan-1-ol] as the compound, how does the IC50 [1] read?
**A.** 0.1 to 1 µM

**Q.** What about the IC50 [2] of the same compound?
**A.** 1 to 30 µM

**Q.** Which results are given for `COC(CO)c1cc2nc(N3CCC(Oc4ccc(F)cc4F)CC3)c(-c3cnn(C)c3)nc2cn1` (stereo not shown) [Compound 438, 2-(2-(4-(2,4-difluorophenoxy)piperidin-1-yl)-3-(1-methyl-1H-pyrazol-4-yl)pyrido[3,4-b]pyrazin-7-yl)-2-methoxyethan-1-ol]?
**A.** IC50 [1]: 0.1 to 1 µM; IC50 [2]: 1 to 30 µM

**Q.** How did the IC50 [1] turn out when `CC(=O)N1CCc2nc(N3CCC(Oc4ccc(F)cc4F)CC3)c(-c3cnn(CF)c3)nc2C1` [Compound 439, 1-{2-[4-(2,4-difluorophenoxy)piperidin-1-yl]-3-[1-(fluoromethyl)-1H-pyrazol-4-yl]-5H,6H,7H,8H-pyrido[3,4-b]pyrazin-6-yl}ethan-1-one] was run?
**A.** < 0.1 µM

**Q.** What about the IC50 [2] of the same compound?
**A.** 1 to 30 µM

**Q.** How did the IC50 [1] turn out when `CCn1cc(-c2nc3cnc(N)cc3nc2N2CCC(Oc3cc(Cl)ccc3Cl)CC2)cn1` [Compound 440, 2-[4-(2,5-dichlorophenoxy)piperidin-1-yl]-3-(1-ethyl-1H-pyrazol-4-yl)pyrido[3,4-b]pyrazin-7-amine] was run?
**A.** 1 to 30 µM

**Q.** And the IC50 [2]?
**A.** 1 to 30 µM

**Q.** Which results are given for `CCn1cc(-c2nc3cnc(C(O)C(C)(C)O)cc3nc2N2CCC(Oc3cc(Cl)ccc3Cl)CC2)cn1` (stereo not shown) [Compound 441, 1-{2-[4-(2,5-dichlorophenoxy)piperidin-1-yl]-3-(1-ethyl-1H-pyrazol-4-yl)pyrido[3,4-b]pyrazin-7-yl}-2-methylpropane-1,2-diol]?
**A.** IC50 [1]: 0.1 to 1 µM; IC50 [2]: 1 to 30 µM

**Q.** With `CNC(CO)c1cc2nc(N3CCC(Oc4ccc(F)cc4F)CC3)c(-c3cnn(C)c3)nc2cn1` (stereo not shown) [Compound 442, 2-{2-[4-(2,4-difluorophenoxy)piperidin-1-yl]-3-(1-methyl-1H-pyrazol-4-yl)pyrido[3,4-b]pyrazin-7-yl}-2-(methylamino)ethan-1-ol] as the compound, how does the IC50 [1] read?
**A.** 1 to 30 µM

**Q.** What about the IC50 [2] of the same compound?
**A.** 1 to 30 µM

**Q.** What does the source list for `Cn1cc(-c2nc3cnc(N)cc3nc2N2CCC(Oc3cc(Cl)ccc3Cl)CC2)cn1` [Compound 443, 2-[4-(2,5-dichlorophenoxy)piperidin-1-yl]-3-(1-methyl-1H-pyrazol-4-yl)pyrido[3,4-b]pyrazin-7-amine]?
**A.** IC50 [1]: 1 to 30 µM; IC50 [2]: 1 to 30 µM

**Q.** `CC(=O)N1CCc2nc(N3CCC(Oc4ccc(F)cc4F)CC3)c(-c3cncc(C)n3)nc2C1` [Compound 444, 1-{2-[4-(2,4-difluorophenoxy)piperidin-1-yl]-3-(6-methylpyrazin-2-yl)-5H,6H,7H,8H-pyrido[3,4-b]pyrazin-6-yl}ethan-1-one] was tested. Which IC50 [1] did it give?
**A.** 1 to 30 µM

**Q.** What about the IC50 [2] of the same compound?
**A.** 1 to 30 µM

**Q.** What does the source list for `Cn1cc(-c2nc3cn(C)c(=O)cc3nc2N2CCC(Oc3ccc(F)cc3F)CC2)cn1` [Compound 447, 2-[4-(2,4-difluorophenoxy)piperidin-1-yl]-6-methyl-3-(1-methyl-1H-pyrazol-4-yl)-6H,7H-pyrido[3,4-b]pyrazin-7-one]?
**A.** IC50 [1]: 1 to 30 µM; IC50 [2]: 1 to 30 µM

**Q.** How did the IC50 [1] turn out when `CCn1ccc(-c2nc3c(nc2N2CCC(Oc4ccc(F)cc4F)CC2)CCN(C(C)=O)C3)n1` [Compound 448, 1-{2-[4-(2,4-difluorophenoxy)piperidin-1-yl]-3-(1-ethyl-1H-pyrazol-3-yl)-5H,6H,7H,8H-pyrido[3,4-b]pyrazin-6-yl}ethan-1-one] was run?
**A.** 0.1 to 1 µM

**Q.** What about the IC50 [2] of the same compound?
**A.** 1 to 30 µM

**Q.** With `Cn1cc(-c2nc3cnc(N4CCOCC4)cc3nc2N2CCC(Oc3ccc(F)cc3F)CC2)cn1` [Compound 449, 4-{2-[4-(2,4-difluorophenoxy)piperidin-1-yl]-3-(1-methyl-1H-pyrazol-4-yl)pyrido[3,4-b]pyrazin-7-yl}morpholine] as the compound, how does the IC50 [1] read?
**A.** 1 to 30 µM

**Q.** What about the IC50 [2] of the same compound?
**A.** 1 to 30 µM

**Q.** How did the IC50 [1] turn out when `COC1CN(c2cc3nc(N4CCC(Oc5ccc(F)cc5F)CC4)c(-c4cnn(C)c4)nc3cn2)C1` [Compound 450, 4-(2,4-difluorophenoxy)-1-[7-(3-methoxyazetidin-1-yl)-3-(1-methyl-1H-pyrazol-4-yl)pyrido[3,4-b]pyrazin-2-yl]piperidine] was run?
**A.** 1 to 30 µM

**Q.** And the IC50 [2]?
**A.** 1 to 30 µM

**Q.** What does the source list for `CC(=O)N1CCc2nc(N3CC=CC3)c(-c3cnn(C)c3)nc2C1` [Compound 451, 1-[2-(2,5-dihydro-1H-pyrrol-1-yl)-3-(1-methyl-1H-pyrazol-4-yl)-5H,6H,7H,8H-pyrido[3,4-b]pyrazin-6-yl]ethan-1-one]?
**A.** IC50 [1]: ≥ 30 µM; IC50 [2]: 1 to 30 µM

**Q.** For `COc1ccc(OC2CCN(c3nc4c(nc3-c3cnn(C)c3)CN(C(C)=O)CC4)CC2)c(F)c1` [Compound 452, 1-{2-[4-(2-fluoro-4-methoxyphenoxy)piperidin-1-yl]-3-(1-methyl-1H-pyrazol-4-yl)-5H,6H,7H,8H-pyrido[3,4-b]pyrazin-6-yl}ethan-1-one], which IC50 [1] is on record?
**A.** 0.1 to 1 µM

**Q.** And the IC50 [2]?
**A.** 1 to 30 µM

**Q.** `CC(=O)N1CCc2nc(N3CCC(Oc4ccc(F)c(F)c4)CC3)c(-c3cnn(C)c3)nc2C1` [Compound 453, 1-{2-[4-(3,4-difluorophenoxy)piperidin-1-yl]-3-(1-methyl-1H-pyrazol-4-yl)-5H,6H,7H,8H-pyrido[3,4-b]pyrazin-6-yl}ethan-1-one] was tested. Which IC50 [1] did it give?
**A.** 1 to 30 µM

**Q.** What about the IC50 [2] of the same compound?
**A.** 1 to 30 µM

**Q.** Which results are given for `CC(=O)N1CCc2nc(N3CCC(Oc4c(F)cccc4F)CC3)c(-c3cnn(C)c3)nc2C1` [Compound 454, 1-{2-[4-(2,6-difluorophenoxy)piperidin-1-yl]-3-(1-methyl-1H-pyrazol-4-yl)-5H,6H,7H,8H-pyrido[3,4-b]pyrazin-6-yl}ethan-1-one]?
**A.** IC50 [1]: 1 to 30 µM; IC50 [2]: 1 to 30 µM

**Q.** How did the IC50 [1] turn out when `CC(=O)N1CCc2nc(N3CCC(Oc4c(F)ccc(F)c4F)CC3)c(-c3cnn(C)c3)nc2C1` [Compound 455, 1-[3-(1-methyl-1H-pyrazol-4-yl)-2-[4-(2,3,6-trifluorophenoxy)piperidin-1-yl]-5H,6H,7H,8H-pyrido[3,4-b]pyrazin-6-yl]ethan-1-one] was run?
**A.** 1 to 30 µM

**Q.** What about the IC50 [2] of the same compound?
**A.** 1 to 30 µM

**Q.** For `CC(=O)N1CCc2nc(N3CCC(Oc4ccc(Cl)cc4F)CC3)c(-c3cnn(C)c3)nc2C1` [Compound 456, 1-{2-[4-(4-chloro-2-fluorophenoxy)piperidin-1-yl]-3-(1-methyl-1H-pyrazol-4-yl)-5H,6H,7H,8H-pyrido[3,4-b]pyrazin-6-yl}ethan-1-one], which IC50 [1] is on record?
**A.** 0.1 to 1 µM

**Q.** And the IC50 [2]?
**A.** 1 to 30 µM

**Q.** With `CC(=O)N1CCc2nc(N3CCC(Oc4cc(Cl)ccc4F)CC3)c(-c3cnn(C)c3)nc2C1` [Compound 457, 1-{2-[4-(5-chloro-2-fluorophenoxy)piperidin-1-yl]-3-(1-methyl-1H-pyrazol-4-yl)-5H,6H,7H,8H-pyrido[3,4-b]pyrazin-6-yl}ethan-1-one] as the compound, how does the IC50 [1] read?
**A.** 0.1 to 1 µM

**Q.** What about the IC50 [2] of the same compound?
**A.** 1 to 30 µM

**Q.** How did the IC50 [1] turn out when `CC(=O)N1CCc2nc(N3CCC(Oc4cc(Cl)c(F)cc4F)CC3)c(-c3cnn(C)c3)nc2C1` [Compound 458, 1-{2-[4-(5-chloro-2,4-difluorophenoxy)piperidin-1-yl]-3-(1-methyl-1H-pyrazol-4-yl)-5H,6H,7H,8H-pyrido[3,4-b]pyrazin-6-yl}ethan-1-one] was run?
**A.** 0.1 to 1 µM

**Q.** And the IC50 [2]?
**A.** 1 to 30 µM

**Q.** For `Cn1cc(-c2nc3cncc(N)c3nc2N2CCC(Oc3ccc(F)cc3F)CC2)cn1` [Compound 459, 2-[4-(2,4-difluorophenoxy)piperidin-1-yl]-3-(1-methyl-1H-pyrazol-4-yl)pyrido[3,4-b]pyrazin-8-amine], which IC50 [1] is on record?
**A.** 0.1 to 1 µM

**Q.** What about the IC50 [2] of the same compound?
**A.** 1 to 30 µM

**Q.** With `Nc1cc2nc(N3CCC(Oc4ccc(F)cc4F)CC3)c(-c3cnn(C(F)F)c3)nc2cn1` [Compound 460, 3-[1-(difluoromethyl)-1H-pyrazol-4-yl]-2-[4-(2,4-difluorophenoxy)piperidin-1-yl]pyrido[3,4-b]pyrazin-7-amine] as the compound, how does the IC50 [1] read?
**A.** 0.1 to 1 µM

**Q.** And the IC50 [2]?
**A.** 1 to 30 µM

**Q.** Which IC50 [1] does the source give for `Cn1cc(-c2nc3cnc(CC(C)(C)O)cc3nc2N2CCC(Oc3ccc(F)cc3F)CC2)cn1` [Compound 461, 1-(2-(4-(2,4-difluorophenoxy)piperidin-1-yl)-3-(1-methyl-1H-pyrazol-4-yl)pyrido[3,4-b]pyrazin-7-yl)-2-methylpropan-2-ol] here?
**A.** 0.1 to 1 µM

**Q.** And the IC50 [2]?
**A.** 1 to 30 µM

**Q.** `Nc1cc2nc(N3CCC(Oc4ccc(F)cc4F)CC3)c(-c3cnn(C4CC4)c3)nc2cn1` [Compound 462, 3-(1-cyclopropyl-1H-pyrazol-4-yl)-2-[4-(2,4-difluorophenoxy)piperidin-1-yl]pyrido[3,4-b]pyrazin-7-amine] was tested. Which IC50 [1] did it give?
**A.** 0.1 to 1 µM

**Q.** And the IC50 [2]?
**A.** 1 to 30 µM

**Q.** Which results are given for `COCC1CC1c1nc2c(nc1N1CCC(Oc3ccc(F)cc3F)CC1)CCN(C(C)=O)C2` (stereo not shown) [Compound 463, 1-(2-(4-(2,4-difluorophenoxy)piperidin-1-yl)-3-(2-(methoxymethyl)cyclopropyl)-7,8-dihydropyrido[3,4-b]pyrazin-6(5H)-yl)ethan-1-one]?
**A.** IC50 [1]: 0.1 to 1 µM; IC50 [2]: 1 to 30 µM

**Q.** For `Cn1cc(-c2nc3cnc(C4CNC(=O)CO4)cc3nc2N2CCC(Oc3ccc(F)cc3F)CC2)cn1` (stereo not shown) [Compound 464, 6-(2-(4-(2,4-difluorophenoxy)piperidin-1-yl)-3-(1-methyl-1H-pyrazol-4-yl)pyrido[3,4-b]pyrazin-7-yl)morpholin-3-one], which IC50 [1] is on record?
**A.** 0.1 to 1 µM

**Q.** What about the IC50 [2] of the same compound?
**A.** 1 to 30 µM

**Q.** What does the source list for `CC(=O)N1CCc2nc(N3CCC(Oc4ccc(F)cc4F)CC3)c(-c3cncc(N)n3)nc2C1` [Compound 465, 1-[3-(6-aminopyrazin-2-yl)-2-[4-(2,4-difluorophenoxy)piperidin-1-yl]-5H,6H,7H,8H-pyrido[3,4-b]pyrazin-6-yl]ethan-1-one]?
**A.** IC50 [1]: 0.1 to 1 µM; IC50 [2]: 1 to 30 µM

**Q.** For `CC(=O)N1CCc2nc(N3CCC(Oc4ccc(F)cc4F)CC3)c(-c3ccnc(Cl)n3)nc2C1` [Compound 466, 1-[3-(2-chloropyrimidin-4-yl)-2-[4-(2,4-difluorophenoxy)piperidin-1-yl]-5H,6H,7H,8H-pyrido[3,4-b]pyrazin-6-yl]ethan-1-one], which IC50 [1] is on record?
**A.** 1 to 30 µM

**Q.** What about the IC50 [2] of the same compound?
**A.** 1 to 30 µM

Source: patent US20260042755A1, “GPR6 INVERSE AGONISTS” (MapLight Therapeutics, Inc., priority 2022, published 2026)
